In US8367873B2, “Phenyl-substituted bicyclooctane-1,3-dione derivatives” (Bayer Cropscience AG, priority 2008, dated 2013):

Experiments:
Type in all cases: in vivo
Echinocloa crus-galli [1] = experiment: Herbicidal pre-emergence action; settings: pre-emergence method, 80 g/ha, greenhouse, visual assessment vs untreated controls
Summary of the method: (§1)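 Seeds sown in sandy loam and covered; WP-formulated compounds applied to the soil surface as aqueous suspension at 600 l/ha with 0.2% wetting agent, at varying rates. Greenhouse-grown; emergence damage scored visually after three weeks versus untreated controls (100% = plants dead, 0% = like control).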

Lolium multiflorum [2] = experiment: Herbicidal pre-emergence action; settings: pre-emergence method, 80 g/ha, greenhouse, visual assessment vs untreated controls
Summary of the method: as §1

Alopecurus myosuroides [3] = experiment: Herbicidal pre-emergence action; settings: pre-emergence method, 80 g/ha, greenhouse, visual assessment vs untreated controls
Summary of the method: as §1

Setaria viridis [4] = experiment: Herbicidal pre-emergence action; settings: pre-emergence method, 80 g/ha, greenhouse, visual assessment vs untreated controls
Summary of the method: as §1

[5] = test system: monocotylidonous and dicotylidonous weed and crop plants; experiment: Herbicidal post-emergence action (other test plants); settings: post-emergence method, 80 g/ha
Summary of the method: (§2)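 Percent herbicidal effect (0% like control, 100% plants dead) was rated by eye roughly three weeks post-treatment. Treatment was a post-emergence spray of wettable-powder formulations at different doses, 600 l/ha water with 0.2% wetter, onto one-leaf-stage weeds and crops grown in greenhouse pots.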

Echinocloa crus-galli [6] = experiment: Herbicidal post-emergence action; settings: post-emergence method, 80 g/ha
Summary of the method: as §2

Lolium multiflorum [7] = experiment: Herbicidal post-emergence action; settings: post-emergence method, 80 g/ha
Summary of the method: as §2

Alopecurus myosuroides [8] = experiment: Herbicidal post-emergence action; settings: post-emergence method, 80 g/ha
Summary of the method: as §2

Setaria viridis [9] = experiment: Herbicidal post-emergence action; settings: post-emergence method, 80 g/ha
Summary of the method: as §2

[10] = test system: monocotylidonous and dicotylidonous weed and crop plants; experiment: Herbicidal pre-emergence action (other test plants); settings: pre-emergence method, 80 g/ha, greenhouse, visual assessment vs untreated controls
Summary of the method: as §1

Structure (SMILES): CCc1cc(C)cc(C)c1C1=C(OC(=O)C(C)C)C2CC3(CC2C1=O)OCC=CCO3 (centres unmarked) [I-b-76]
- herbicidal effect ECHCG (Echinocloa crus-galli [1]): 100%
- herbicidal effect LOLMU (Lolium multiflorum [2]): 100%
- herbicidal effect ALOMY (Alopecurus myosuroides [3]): 100%
- herbicidal effect SETVI (Setaria viridis [4]): 70%
- herbicidal effect against AVEFA (Avena fatua) [5]: 90%
- herbicidal effect against ECHCG (Echinochloa crus-galli) (Echinocloa crus-galli [6]): 100%
- herbicidal effect against LOLMU (Lolium multiflorum) (Lolium multiflorum [7]): 100%
- herbicidal effect against ALOMY (Alopecurus myosuroides) (Alopecurus myosuroides [8]): 90%
- herbicidal effect against SETVI (Setaria viridis) (Setaria viridis [9]): 100%
- herbicidal effect AVEFA [10]: 60%

Structure (SMILES): CCc1cc(C)cc(CC)c1C1=C(O)[C@H]2CC3(C[C@H]2C1=O)OCC(C)(C)CO3 (relative stereo) [I-a-9]
- herbicidal effect ECHCG (Echinocloa crus-galli [1]): 100%
- herbicidal effect LOLMU (Lolium multiflorum [2]): 100%
- herbicidal effect ALOMY (Alopecurus myosuroides [3]): 90%
- herbicidal effect SETVI (Setaria viridis [4]): 90%
- herbicidal effect against AVEFA (Avena fatua) [5]: 60%
- herbicidal effect against ECHCG (Echinochloa crus-galli) (Echinocloa crus-galli [6]): 100%
- herbicidal effect against LOLMU (Lolium multiflorum) (Lolium multiflorum [7]): 90%
- herbicidal effect against ALOMY (Alopecurus myosuroides) (Alopecurus myosuroides [8]): 60%
- herbicidal effect against SETVI (Setaria viridis) (Setaria viridis [9]): 90%
- herbicidal effect AVEFA [10]: 70%

Structure (SMILES): CCC(=O)OC1=C(c2c(C)cc(C)cc2CC)C(=O)C2CC3(COC(C)(C)O3)CC12 (centres unmarked) [I-b-67]
- herbicidal effect ECHCG (Echinocloa crus-galli [1]): 100%
- herbicidal effect LOLMU (Lolium multiflorum [2]): 100%
- herbicidal effect ALOMY (Alopecurus myosuroides [3]): 90%
- herbicidal effect SETVI (Setaria viridis [4]): 90%
- herbicidal effect against AVEFA (Avena fatua) [5]: 70%
- herbicidal effect against ECHCG (Echinochloa crus-galli) (Echinocloa crus-galli [6]): 100%
- herbicidal effect against LOLMU (Lolium multiflorum) (Lolium multiflorum [7]): 100%
- herbicidal effect against ALOMY (Alopecurus myosuroides) (Alopecurus myosuroides [8]): 100%
- herbicidal effect against SETVI (Setaria viridis) (Setaria viridis [9]): 90%
- herbicidal effect AVEFA [10]: 90%

Structure (SMILES): CCOC(=O)OC1=C(c2c(CC)cc(C)cc2CC)C(=O)C2CC3(CC12)OCC(OC)CO3 (centres unmarked) [I-c-25]
- herbicidal effect ECHCG (Echinocloa crus-galli [1]): 100%
- herbicidal effect LOLMU (Lolium multiflorum [2]): 100%
- herbicidal effect ALOMY (Alopecurus myosuroides [3]): 100%
- herbicidal effect SETVI (Setaria viridis [4]): 80%
- herbicidal effect against AVEFA (Avena fatua) [5]: 100%
- herbicidal effect against ECHCG (Echinochloa crus-galli) (Echinocloa crus-galli [6]): 100%
- herbicidal effect against LOLMU (Lolium multiflorum) (Lolium multiflorum [7]): 100%
- herbicidal effect against ALOMY (Alopecurus myosuroides) (Alopecurus myosuroides [8]): 100%
- herbicidal effect against SETVI (Setaria viridis) (Setaria viridis [9]): 100%
- herbicidal effect AVEFA [10]: 90%

Structure (SMILES): Cc1cc(C)c(C2=C(OC(=O)C(C)(C)CCl)C3CC4(COC(C)(C)O4)CC3C2=O)c(C)c1 (mixture of isomers) [I-b-51]
- herbicidal effect ECHCG (Echinocloa crus-galli [1]): 30%
- herbicidal effect LOLMU (Lolium multiflorum [2]): 70%
- herbicidal effect ALOMY (Alopecurus myosuroides [3]): 80%
- herbicidal effect SETVI (Setaria viridis [4]): 0%
- herbicidal effect against AVEFA (Avena fatua) [5]: 0%
- herbicidal effect against ECHCG (Echinochloa crus-galli) (Echinocloa crus-galli [6]): 100%
- herbicidal effect against LOLMU (Lolium multiflorum) (Lolium multiflorum [7]): 60%
- herbicidal effect against ALOMY (Alopecurus myosuroides) (Alopecurus myosuroides [8]): 90%
- herbicidal effect against SETVI (Setaria viridis) (Setaria viridis [9]): 40%
- herbicidal effect AVEFA [10]: 30%

Structure (SMILES): CCc1cc(C)cc(CC)c1C1=C(OC(=O)C(C)C)C2CC3(COC(C)(C)O3)CC2C1=O (centres unmarked) [I-b-3]
- herbicidal effect ECHCG (Echinocloa crus-galli [1]): 0%
- herbicidal effect LOLMU (Lolium multiflorum [2]): 100%
- herbicidal effect ALOMY (Alopecurus myosuroides [3]): 90%
- herbicidal effect SETVI (Setaria viridis [4]): 50%
- herbicidal effect against AVEFA (Avena fatua) [5]: 40%
- herbicidal effect against ECHCG (Echinochloa crus-galli) (Echinocloa crus-galli [6]): 100%
- herbicidal effect against LOLMU (Lolium multiflorum) (Lolium multiflorum [7]): 100%
- herbicidal effect against ALOMY (Alopecurus myosuroides) (Alopecurus myosuroides [8]): 100%
- herbicidal effect against SETVI (Setaria viridis) (Setaria viridis [9]): 20%
- herbicidal effect AVEFA [10]: 60%

Structure (SMILES): CCc1cc(C)cc(CC)c1C1=C(OC(=O)C(C)C)C2CC3(CC2C1=O)OCC=CCO3 (centres unmarked) [I-b-12]
- herbicidal effect ECHCG (Echinocloa crus-galli [1]): 100%
- herbicidal effect LOLMU (Lolium multiflorum [2]): 100%
- herbicidal effect ALOMY (Alopecurus myosuroides [3]): 100%
- herbicidal effect SETVI (Setaria viridis [4]): 90%
- herbicidal effect against AVEFA (Avena fatua) [5]: 100%
- herbicidal effect against ECHCG (Echinochloa crus-galli) (Echinocloa crus-galli [6]): 100%
- herbicidal effect against LOLMU (Lolium multiflorum) (Lolium multiflorum [7]): 100%
- herbicidal effect against ALOMY (Alopecurus myosuroides) (Alopecurus myosuroides [8]): 90%
- herbicidal effect against SETVI (Setaria viridis) (Setaria viridis [9]): 100%
- herbicidal effect AVEFA [10]: 70%

Structure (SMILES): CCc1cc(C)cc(CC)c1C1=C(OC(=O)OC(C)C)C2CC3(COC(C)(C)O3)CC2C1=O (centres unmarked) [I-c-2]
- herbicidal effect ECHCG (Echinocloa crus-galli [1]): 40%
- herbicidal effect LOLMU (Lolium multiflorum [2]): 100%
- herbicidal effect ALOMY (Alopecurus myosuroides [3]): 90%
- herbicidal effect SETVI (Setaria viridis [4]): 60%
- herbicidal effect against AVEFA (Avena fatua) [5]: 40%
- herbicidal effect against ECHCG (Echinochloa crus-galli) (Echinocloa crus-galli [6]): 40%
- herbicidal effect against LOLMU (Lolium multiflorum) (Lolium multiflorum [7]): 100%
- herbicidal effect against ALOMY (Alopecurus myosuroides) (Alopecurus myosuroides [8]): 90%
- herbicidal effect against SETVI (Setaria viridis) (Setaria viridis [9]): 40%
- herbicidal effect AVEFA [10]: 50%

Structure (SMILES): CCc1cc(C)cc(C)c1C1=C(O)C2CC3(CC2C1=O)OCCCCO3 (centres unmarked) [I-a-61]
- herbicidal effect ECHCG (Echinocloa crus-galli [1]): 80%
- herbicidal effect LOLMU (Lolium multiflorum [2]): 100%
- herbicidal effect ALOMY (Alopecurus myosuroides [3]): 70%
- herbicidal effect SETVI (Setaria viridis [4]): 60%
- herbicidal effect against AVEFA (Avena fatua) [5]: 90%
- herbicidal effect against ECHCG (Echinochloa crus-galli) (Echinocloa crus-galli [6]): 100%
- herbicidal effect against LOLMU (Lolium multiflorum) (Lolium multiflorum [7]): 100%
- herbicidal effect against ALOMY (Alopecurus myosuroides) (Alopecurus myosuroides [8]): 90%
- herbicidal effect against SETVI (Setaria viridis) (Setaria viridis [9]): 90%
- herbicidal effect AVEFA [10]: 60%

Structure (SMILES): Cc1cc(C)c(C2=C([O-])C3CC4(CC3C2=O)OCCO4)c(C)c1.[Na+] (centres unmarked) [I-f-11]
- herbicidal effect ECHCG (Echinocloa crus-galli [1]): 0%
- herbicidal effect LOLMU (Lolium multiflorum [2]): 100%
- herbicidal effect ALOMY (Alopecurus myosuroides [3]): 40%
- herbicidal effect SETVI (Setaria viridis [4]): 20%
- herbicidal effect against AVEFA (Avena fatua) [5]: 40%
- herbicidal effect against ECHCG (Echinochloa crus-galli) (Echinocloa crus-galli [6]): 90%
- herbicidal effect against LOLMU (Lolium multiflorum) (Lolium multiflorum [7]): 100%
- herbicidal effect against ALOMY (Alopecurus myosuroides) (Alopecurus myosuroides [8]): 60%
- herbicidal effect against SETVI (Setaria viridis) (Setaria viridis [9]): 80%
- herbicidal effect AVEFA [10]: 50%

Structure (SMILES): C=C1CC2C(=O)C(c3c(C)cc(C)cc3C)=C(OC(=O)OCC)C2C1 (racemic) [I-c-45]
- herbicidal effect ECHCG (Echinocloa crus-galli [1]): 80%
- herbicidal effect LOLMU (Lolium multiflorum [2]): 80%
- herbicidal effect ALOMY (Alopecurus myosuroides [3]): 60%
- herbicidal effect SETVI (Setaria viridis [4]): 80%
- herbicidal effect against AVEFA (Avena fatua) [5]: 0%
- herbicidal effect against ECHCG (Echinochloa crus-galli) (Echinocloa crus-galli [6]): 90%
- herbicidal effect against LOLMU (Lolium multiflorum) (Lolium multiflorum [7]): 100%
- herbicidal effect against ALOMY (Alopecurus myosuroides) (Alopecurus myosuroides [8]): 40%
- herbicidal effect against SETVI (Setaria viridis) (Setaria viridis [9]): 90%
- herbicidal effect AVEFA [10]: 80%

Structure (SMILES): CCc1cc(C)cc(CC)c1C1=C(OC(C)=O)C2CC3(CC2C1=O)OCCCO3 (centres unmarked) [I-b-23]
- herbicidal effect ECHCG (Echinocloa crus-galli [1]): 100%
- herbicidal effect LOLMU (Lolium multiflorum [2]): 100%
- herbicidal effect ALOMY (Alopecurus myosuroides [3]): 90%
- herbicidal effect SETVI (Setaria viridis [4]): 50%
- herbicidal effect against AVEFA (Avena fatua) [5]: 100%
- herbicidal effect against ECHCG (Echinochloa crus-galli) (Echinocloa crus-galli [6]): 100%
- herbicidal effect against LOLMU (Lolium multiflorum) (Lolium multiflorum [7]): 100%
- herbicidal effect against ALOMY (Alopecurus myosuroides) (Alopecurus myosuroides [8]): 100%
- herbicidal effect against SETVI (Setaria viridis) (Setaria viridis [9]): 100%
- herbicidal effect AVEFA [10]: 70%

Structure (SMILES): CCc1cc(C)cc(CC)c1C1=C(O)[C@H]2CC3(C[C@H]2C1=O)OC(C)(C)C(C)(C)O3 (relative stereo) [I-a-19]
- herbicidal effect ECHCG (Echinocloa crus-galli [1]): 0%
- herbicidal effect LOLMU (Lolium multiflorum [2]): 100%
- herbicidal effect ALOMY (Alopecurus myosuroides [3]): 90%
- herbicidal effect SETVI (Setaria viridis [4]): 20%
- herbicidal effect against AVEFA (Avena fatua) [5]: 0%
- herbicidal effect against ECHCG (Echinochloa crus-galli) (Echinocloa crus-galli [6]): 90%
- herbicidal effect against LOLMU (Lolium multiflorum) (Lolium multiflorum [7]): 100%
- herbicidal effect against ALOMY (Alopecurus myosuroides) (Alopecurus myosuroides [8]): 80%
- herbicidal effect against SETVI (Setaria viridis) (Setaria viridis [9]): 50%
- herbicidal effect AVEFA [10]: 20%

Structure (SMILES): CCC(C)(C)C(=O)OC1=C(c2c(C)cc(C)cc2C)C(=O)C2CC3(COC(C)(C)O3)CC12 (mixture of isomers) [I-b-45]
- herbicidal effect ECHCG (Echinocloa crus-galli [1]): 20%
- herbicidal effect LOLMU (Lolium multiflorum [2]): 60%
- herbicidal effect ALOMY (Alopecurus myosuroides [3]): 90%
- herbicidal effect SETVI (Setaria viridis [4]): 30%
- herbicidal effect against AVEFA (Avena fatua) [5]: 0%
- herbicidal effect against ECHCG (Echinochloa crus-galli) (Echinocloa crus-galli [6]): 90%
- herbicidal effect against LOLMU (Lolium multiflorum) (Lolium multiflorum [7]): 90%
- herbicidal effect against ALOMY (Alopecurus myosuroides) (Alopecurus myosuroides [8]): 80%
- herbicidal effect against SETVI (Setaria viridis) (Setaria viridis [9]): 40%
- herbicidal effect AVEFA [10]: 40%
